Results reported in patent US7297700B2, “Bicycloheteroaryl compounds as P2X7 modulators and uses thereof” (Renovis, Inc., priority 2005, dated 2007).

The compounds below were run on IL-1β release from THP-1 cells (assay: IL-1β Release Assay (Alternate Method), THP-1 cells). Conditions: Homo sapiens, THP-1, read-out: IL-1β % inhibition.
Format: cell-based, human
Procedure, shortened: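 IL-1β release, measured by ELISA, follows 45 min BzATP (250 uM final) stimulation of THP-1 cells given 30 min compound pretreatment. Cells were first primed 16 h with LPS and IFN-γ (100 ng/mL each), then 2 h with fresh LPS; inhibition expressed in percent after background correction.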
`O=C(CC12CC3CC(CC(C3)C1)C2)Nc1ncnc2c1CCN(CCO)C2` [Compound 18, 2-Adamantan-1-yl-N-[7-(2-hydroxy-ethyl)-5,6,7,8-tetrahydro-pyrido[3,4-d]pyrimidin-4-yl]-acetamide] was tested, and the inhibition at 0.3 µM was 0 to 25%.

Same assay, conditions: at 0.3 μM; THP-1 cells
`O=C(O)C=Cc1ccc(CN2CCc3c(ncnc3NC(=O)CC34CC5CC(CC(C5)C3)C4)C2)cc1` [Compound 115] was tested, and the IL-1β % inhibition was “+ (compound exhibited 0-25% inhibition at 0.3 μM)”. For `O=C(NCCc1ccccc1)c1ncnc2c1CCNC2` [Compound 3], the IL-1β % inhibition was “+ (compound exhibited 0-25% inhibition at 0.3 μM)”. With `O=C(CC12CC3CC(CC(C3)C1)C2)Nc1ncnc2c1CCN(S(=O)(=O)c1ccccc1-c1ccccc1)C2` [Compound 194] the IL-1β % inhibition was “++++ (compound exhibited 75% or greater inhibition at 0.3 μM)”. In the case of `CC(C)(C(=O)Nc1ncnc2c1CCN(S(=O)(=O)c1cccc(Cl)c1)C2)C12CC3CC(CC(C3)C1)C2` [Compound 354], the IL-1β % inhibition was “+ (compound exhibited 0-25% inhibition at 0.3 μM)”. With `COc1cc(CN2CCc3c(ncnc3NC(=O)CC34CC5CC(CC(C5)C3)C4)C2)ccc1F` [Compound 103] the IL-1β % inhibition was “+ (compound exhibited 0-25% inhibition at 0.3 μM)”. `O=C(CC12CC3CC(CC(C3)C1)C2)Nc1ncnc2c1CCN(Cc1ccccn1)C2` [Compound 61] was tested, and the IL-1β % inhibition was “+ (compound exhibited 0-25% inhibition at 0.3 μM)”. In the case of `O=C(NCC12CC3CC(CC(C3)C1)C2)c1ncnc2c1CCN(Cc1ccc3c(c1)OCO3)C2` [Compound 340], the IL-1β % inhibition was “+++ (compound exhibited 50-75% inhibition at 0.3 μM)”. `O=C(CC12CC3CC(CC(C3)C1)C2)Nc1ncnc2c1CCN(Cc1ccc(F)cc1Cl)C2` [Compound 326] was tested, and the IL-1β % inhibition was “++ (compound exhibited 25-50% inhibition at 0.3 μM)”. With `O=C(CC12CC3CC(CC(C3)C1)C2)Nc1ncnc2c1CCN(C(=O)c1ccc(F)cc1F)C2` [Compound 277] the IL-1β % inhibition was “+++ (compound exhibited 50-75% inhibition at 0.3 μM)”. For `O=C(CC12CC3CC(CC(C3)C1)C2)Nc1ncnc2c1CCN(Cc1ccnc3ccccc13)C2` [Compound 69], the IL-1β % inhibition was “+ (compound exhibited 0-25% inhibition at 0.3 μM)”. With `COc1ccc(S(=O)(=O)N2CCc3c(ncnc3NC(=O)CC34CC5CC(CC(C5)C3)C4)C2)cc1OC` [Compound 151] the IL-1β % inhibition was “+ (compound exhibited 0-25% inhibition at 0.3 μM)”. With `O=C(CC12CC3CC(CC(C3)C1)C2)Nc1ncnc2c1CCN(C(=O)c1ccc(F)c(F)c1)C2` [Compound 232] the IL-1β % inhibition was “+++ (compound exhibited 50-75% inhibition at 0.3 μM)”. With `CC(C)(C(=O)Nc1ncnc2c1CCN(C(=O)c1c(F)cccc1Cl)C2)C12CC3CC(CC(C3)C1)C2` [Compound 362] the IL-1β % inhibition was “+ (compound exhibited 0-25% inhibition at 0.3 μM)”. With `O=C(CC12CC3CC(CC(C3)C1)C2)Nc1ncnc2c1CCN(Cc1ccc(Cl)s1)C2` [Compound 83] the IL-1β % inhibition was “++++ (compound exhibited 75% or greater inhibition at 0.3 μM)”. For `CC(c1ccc2c(c1)OCCO2)N1CCc2c(ncnc2NC(=O)CC23CC4CC(CC(C4)C2)C3)C1` (centres unmarked) [Compound 317], the IL-1β % inhibition was “+ (compound exhibited 0-25% inhibition at 0.3 μM)”. `O=C(CC12CC3CC(CC(C3)C1)C2)Nc1ncnc2c1CCN(Cc1ccc(Cl)cc1)C2` [Compound 41] was tested, and the IL-1β % inhibition was “+ (compound exhibited 0-25% inhibition at 0.3 μM)”. `Cc1nc[nH]c1CN1CCc2c(ncnc2NC(=O)CC23CC4CC(CC(C4)C2)C3)C1` [Compound 81] was tested, and the IL-1β % inhibition was “+++ (compound exhibited 50-75% inhibition at 0.3 μM)”. For `CC(C)(C(=O)Nc1ncnc2c1CCN(S(=O)(=O)Cc1ccc(Cl)cc1)C2)C12CC3CC(CC(C3)C1)C2` [Compound 357], the IL-1β % inhibition was “+ (compound exhibited 0-25% inhibition at 0.3 μM)”. For `O=C(CC12CC3CC(CC(C3)C1)C2)Nc1ncnc2c1CCN(Cc1ccc(F)cc1)C2` [Compound 123], the IL-1β % inhibition was “+ (compound exhibited 0-25% inhibition at 0.3 μM)”. For `COc1ccccc1CCC(=O)Nc1ncnc2c1CCNC2` [Compound 25], the IL-1β % inhibition was “+ (compound exhibited 0-25% inhibition at 0.3 μM)”. For `O=C(CC12CC3CC(CC(C3)C1)C2)Nc1ncnc2c1CCN(Cc1cccc3c1OC(F)(F)O3)C2` [Compound 90], the IL-1β % inhibition was “+ (compound exhibited 0-25% inhibition at 0.3 μM)”. `O=C(CC12CC3CC(CC(C3)C1)C2)Nc1ncnc2c1CCN(C(=O)c1ccccc1Cl)C2` [Compound 294] was tested, and the IL-1β % inhibition was “+++ (compound exhibited 50-75% inhibition at 0.3 μM)”. With `O=C(CC12CC3CC(CC(C3)C1)C2)Nc1ncnc2c1CCN(Cc1ccc(-n3ccnc3)cc1)C2` [Compound 98] the IL-1β % inhibition was “++ (compound exhibited 25-50% inhibition at 0.3 μM)”. With `O=C(NCC1CCCCC1)c1ncnc2c1CCN(Cc1ccccn1)C2` [Compound 52] the IL-1β % inhibition was “+ (compound exhibited 0-25% inhibition at 0.3 μM)”. In the case of `O=C(CC12CC3CC(CC(C3)C1)C2)Nc1ncnc2c1CCN(Cc1ccc(F)c(Cl)c1)C2` [Compound 323], the IL-1β % inhibition was “+ (compound exhibited 0-25% inhibition at 0.3 μM)”. For `O=C(CC12CC3CC(CC(C3)C1)C2)Nc1ncnc2c1CCN(S(=O)(=O)c1ccc(Oc3ccccc3)cc1)C2` [Compound 191], the IL-1β % inhibition was “+ (compound exhibited 0-25% inhibition at 0.3 μM)”. For `O=C(CC12CC3CC(CC(C3)C1)C2)Nc1ncnc2c1CCN(Cc1ccc(OC(F)(F)F)cc1)C2` [Compound 74], the IL-1β % inhibition was “+ (compound exhibited 0-25% inhibition at 0.3 μM)”. `CC12CC3CC(C)(C1)CC(CC(=O)Nc1ncnc4c1CCN(C(=O)C1CCCCC1)C4)(C3)C2` [Compound 386] was tested, and the IL-1β % inhibition was “++ (compound exhibited 25-50% inhibition at 0.3 μM)”. `O=C(CC12CC3CC(CC(C3)C1)C2)Nc1ncnc2c1CCN(Cc1c[nH]cn1)C2` [Compound 82] was tested, and the IL-1β % inhibition was “+++ (compound exhibited 50-75% inhibition at 0.3 μM)”. With `O=C(NCC1CCCCC1)c1ncnc2c1CCNC2` [Compound 2] the IL-1β % inhibition was “+ (compound exhibited 0-25% inhibition at 0.3 μM)”. `O=C(CC12CC3CC(CC(C3)C1)C2)Nc1ncnc2c1CCN(C(=O)c1cc(F)cc(C(F)(F)F)c1)C2` [Compound 267] was tested, and the IL-1β % inhibition was “++ (compound exhibited 25-50% inhibition at 0.3 μM)”. With `CC(C)(C(=O)Nc1ncnc2c1CCN(Cc1ccccc1)C2)C12CC3CC(CC(C3)C1)C2` [Compound 339] the IL-1β % inhibition was “+ (compound exhibited 0-25% inhibition at 0.3 μM)”. In the case of `Cc1cc(S(=O)(=O)N2CCc3c(ncnc3NC(=O)CC34CC5CC(CC(C5)C3)C4)C2)c(C(F)(F)F)o1` [Compound 159], the IL-1β % inhibition was “+ (compound exhibited 0-25% inhibition at 0.3 μM)”.

Same assay, conditions: at 0.3 μM; THP-1 cells, BzATP-stimulated
With `Cc1ccccc1C(=O)N1CCc2c(ncnc2NC(=O)C23CC4CC(CC(C4)C2)C3)C1` [Compound 450] the IL-1β % inhibition was “+ (compound exhibited 0-25% inhibition at 0.3 μM)”. With `Cc1noc(C)c1S(=O)(=O)N1CCc2c(ncnc2NC(=O)C23CC4CC(CC(C4)C2)C3)C1` [Compound 503] the IL-1β % inhibition was “+ (compound exhibited 0-25% inhibition at 0.3 μM)”. For `COc1ccc(C(=O)N2CCc3c(ncnc3NC(=O)C34CC5CC(CC(C5)C3)C4)C2)cc1F` [Compound 475], the IL-1β % inhibition was “++ (compound exhibited 25-50% inhibition at 0.3 μM)”. In the case of `O=C(Nc1ncnc2c1CCN(S(=O)(=O)Cc1ccc(Cl)c(Cl)c1)C2)C12CC3CC(CC(C3)C1)C2` [Compound 518], the IL-1β % inhibition was “++++ (compound exhibited 75% or greater inhibition at 0.3 μM)”. In the case of `O=C(c1ccccc1F)N1CCc2c(ncnc2NC(=O)C23CC4CC(CC(C4)C2)C3)C1` [Compound 452], the IL-1β % inhibition was “++ (compound exhibited 25-50% inhibition at 0.3 μM)”. With `O=C(Nc1ncnc2c1CCN(Cc1ccc(Oc3ccccc3)cc1)C2)C12CC3CC(CC(C3)C1)C2` [Compound 576] the IL-1β % inhibition was “+++ (compound exhibited 50-75% inhibition at 0.3 μM)”. For `O=C(Nc1ncnc2c1CCN(Cc1cccc(Oc3ccccc3)c1)C2)C12CC3CC(CC(C3)C1)C2` [Compound 568], the IL-1β % inhibition was “+ (compound exhibited 0-25% inhibition at 0.3 μM)”. `COc1cc(CN2CCc3c(ncnc3NC(=O)C34CC5CC(CC(C5)C3)C4)C2)cc(Br)c1OC` [Compound 594] was tested, and the IL-1β % inhibition was “+ (compound exhibited 0-25% inhibition at 0.3 μM)”. In the case of `O=C(c1cc(Cl)cc(Cl)c1)N1CCc2c(ncnc2NC(=O)C23CC4CC(CC(C4)C2)C3)C1` [Compound 479], the IL-1β % inhibition was “+ (compound exhibited 0-25% inhibition at 0.3 μM)”. In the case of `O=C(Nc1ncnc2c1CCN(S(=O)(=O)Cc1cc(C(F)(F)F)cc(C(F)(F)F)c1)C2)C12CC3CC(CC(C3)C1)C2` [Compound 515], the IL-1β % inhibition was “+++ (compound exhibited 50-75% inhibition at 0.3 μM)”. For `O=C(Nc1ncnc2c1CCN(S(=O)(=O)c1ccccc1C(F)(F)F)C2)C12CC3CC(CC(C3)C1)C2` [Compound 528], the IL-1β % inhibition was “++ (compound exhibited 25-50% inhibition at 0.3 μM)”. For `O=C(Nc1ncnc2c1CCN(Cc1ccc(F)cc1)C2)C12CC3CC(CC(C3)C1)C2` [Compound 607], the IL-1β % inhibition was “++++ (compound exhibited 75% or greater inhibition at 0.3 μM)”. For `COc1cc(OC)cc(C(=O)N2CCc3c(ncnc3NC(=O)C34CC5CC(CC(C5)C3)C4)C2)c1` [Compound 418], the IL-1β % inhibition was “++ (compound exhibited 25-50% inhibition at 0.3 μM)”. With `COc1ccc(C(=O)N2CCc3c(ncnc3NC(=O)C34CC5CC(CC(C5)C3)C4)C2)cc1OC` [Compound 476] the IL-1β % inhibition was “++ (compound exhibited 25-50% inhibition at 0.3 μM)”. `COc1cc(F)c(CN2CCc3c(ncnc3NC(=O)C34CC5CC(CC(C5)C3)C4)C2)c(F)c1` [Compound 624] was tested, and the IL-1β % inhibition was “+ (compound exhibited 0-25% inhibition at 0.3 μM)”. In the case of `O=C(Nc1ncnc2c1CCN(Cc1ccc(Cl)c(F)c1)C2)C12CC3CC(CC(C3)C1)C2` [Compound 611], the IL-1β % inhibition was “+++ (compound exhibited 50-75% inhibition at 0.3 μM)”. `COc1cccc(S(=O)(=O)N2CCc3c(ncnc3NC(=O)C34CC5CC(CC(C5)C3)C4)C2)c1` [Compound 498] was tested, and the IL-1β % inhibition was “+ (compound exhibited 0-25% inhibition at 0.3 μM)”. `O=C(c1cccc(Cl)c1Cl)N1CCc2c(ncnc2NC(=O)C23CC4CC(CC(C4)C2)C3)C1` [Compound 454] was tested, and the IL-1β % inhibition was “++ (compound exhibited 25-50% inhibition at 0.3 μM)”. `O=C(Nc1ncnc2c1CCN(Cc1ccc(C(F)(F)F)cc1F)C2)C12CC3CC(CC(C3)C1)C2` [Compound 612] was tested, and the IL-1β % inhibition was “++++ (compound exhibited 75% or greater inhibition at 0.3 μM)”.
